Converted amounts (≈) assume the structure as drawn. Structures can show the parent of a compound that is named as a salt. Where two headings read alike, the source gives them in different places.
Tests used:
[1] = test system: H460 (human lung cancer cell); experiment: In vitro anti-tumor cellular activity (MTT), H460; assay type: cell-based; details: for IC50: Homo sapiens, read-out: H460 IC50
[2] = test system: U87MG (Human malignant glioblastoma cells); experiment: In vitro anti-tumor cellular activity (MTT), U87MG; assay type: cell-based; details: for IC50: Homo sapiens, U-87 MG, read-out: U87MG IC50
[3] = test system: MKN-45 (human gastric carcinoma cell); experiment: In vitro anti-tumor cellular activity (MTT), MKN-45; assay type: cell-based; details: for IC50: Homo sapiens, read-out: MKN-45 IC50
[4] = test system: HT-29 (colon cancer cell); experiment: In vitro anti-tumor cellular activity (MTT), HT-29; assay type: cell-based, human; details: for IC50: Homo sapiens, read-out: HT-29 IC50
[5] = test system: SMMC-7721 (hepatoma cell); experiment: In vitro anti-tumor cellular activity (MTT), SMMC-7721; assay type: cell-based, human; details: for IC50: Homo sapiens, read-out: SMMC-7721 IC50

Row | Compound | IC50 ([1]; NCI-H460, 72 h) [µg/mL] | IC50 ([2]; 72 h) [µg/mL] | IC50 ([3]; MKN-45, 72 h) [µg/mL] | IC50 ([4]; HT-29, 72 h) [µg/mL] | IC50 ([5]; SMMC-7721, 72 h) [µg/mL] | other results
1 | COc1cc2c(Oc3ccc(NC(=O)c4nn(-c5ccc(C)cc5C)c5ccccc5c4=O)cc3F)ccnc2cc1OCCCN1CCCC1 [Example 25, N-(3-fluoro-4-((6-methoxy-7-(3-(pyrrolidin-1-yl)propoxy)quinolin-4-yl)oxy)phenyl)-1-(2,4-dimethylphenyl)-4-oxo-1,4-dihydrocinnoline-3-carboxamide] | 0.89 (≈ 1.29 µM) | 2.9 (≈ 4.22 µM) | 1.5 (≈ 2.18 µM) | 1.1 (≈ 1.6 µM) | 0.76 (≈ 1.11 µM) | 
2 | COc1cc2c(Oc3ccc(NC(=O)c4nn(-c5ccc(Cl)cc5Cl)c5ccccc5c4=O)cc3F)ccnc2cc1OCCCN1CCCCC1 [Example 27, N-(3-fluoro-4-((6-methoxy-7-(3-(piperidin-1-yl)propoxy)quinolin-4-yl)oxy)phenyl)-1-(2,4-dichlorophenyl)-4-oxo-1,4-dihydrocinnoline-3-carboxamide] | 1.5 (≈ 2.02 µM) | 0.6 (≈ 0.808 µM) | 2.1 (≈ 2.83 µM) | 1.8 (≈ 2.42 µM) | 0.9 (≈ 1.21 µM) | 
3 | COc1cc2c(Oc3ccc(NC(=O)c4nn(-c5cc(C(F)(F)F)ccc5Cl)c5ccccc5c4=O)cc3F)ccnc2cc1OCCCN1CCCC1 [Example 22, N-(3-fluoro-4-((6-methoxy-7-(3-(pyrrolidin-1-yl)propoxy)quinolin-4-yl)oxy)phenyl)-1-(2-chloro-5-(trifluoromethyl)phenyl)-4-oxo-1,4-dihydrocinnoline-3-carboxamide] | 0.54 (≈ 0.709 µM) | 0.96 (≈ 1.26 µM) | 0.28 (≈ 0.367 µM) | 0.81 (≈ 1.06 µM) | 0.54 (≈ 0.709 µM) | 
4 | N-(3-fluoro-4-((6-methoxy-7-(3-(pyrrolidin-1-yl)propoxy)quinolin-4-yl)oxy)phenyl)-1-(3,4-difluorophenyl)-4-oxo-1,4-dihydrocinnoline-3-carboxamide [Example 12] |  |  |  |  |  | H460 IC50 ([1]; MTT, 72 hours, H460): 0.91 µg/mL; U87MG IC50 ([2]; MTT, 72 hours, U87MG): 0.55 µg/mL; MKN-45 IC50 ([3]; MTT, 72 hours, MKN-45): 1.2 µg/mL; HT-29 IC50 ([4]; MTT, 72 hours, HT-29): 0.41 µg/mL; SMMC-7721 IC50 ([5]; MTT, 72 hours, SMMC-7721): 0.67 µg/mL
5 | N-(3-fluoro-4-((6-methoxy-7-(3-(morpholin-4-yl)propoxy)quinolin-4-yl)oxy)phenyl)-1-(2-f luorophenyl)-4-oxo-1,4-dihydrocinnoline-3-carboxamide [Example 45] |  |  |  |  |  | H460 IC50 ([1]; MTT, 72 hours, H460): 1 µg/mL; U87MG IC50 ([2]; MTT, 72 hours, U87MG): 2.1 µg/mL; MKN-45 IC50 ([3]; MTT, 72 hours, MKN-45): 1.6 µg/mL; HT-29 IC50 ([4]; MTT, 72 hours, HT-29): 0.87 µg/mL; SMMC-7721 IC50 ([5]; MTT, 72 hours, SMMC-7721): 2.3 µg/mL
6 | COc1cc2c(Oc3ccc(NC(=O)c4nn(-c5ccc(Cl)cc5)c5ccccc5c4=O)cc3F)ccnc2cc1OCCCN1CCCCC1 [Example 10, N-(3-fluoro-4-((6-methoxy-7-(3-(piperidin-1-yl)propoxy)quinolin-4-yl)oxy)phenyl)-1-(4-chlorophenyl)-4-oxo-1,4-dihydrocinnoline-3-carboxamide] | 0.06 (≈ 0.0847 µM) | 0.86 (≈ 1.21 µM) | 0.087 (≈ 0.123 µM) | 0.42 (≈ 0.593 µM) | 1 (≈ 1.41 µM) | 
7 | COc1cc2c(Oc3ccc(NC(=O)c4nn(-c5ccccc5Br)c5ccccc5c4=O)cc3F)ccnc2cc1OCCCN1CCOCC1 [Example 34, N-(3-fluoro-4-((6-methoxy-7-(3-(morpholin-4-yl)propoxy)quinolin-4-yl)oxy)phenyl)-1-(2-bromophenyl)-4-oxo-1,4-dihydrocinnoline-3-carboxamide] | 0.7 (≈ 0.928 µM) | 0.65 (≈ 0.861 µM) | 1.3 (≈ 1.72 µM) | 0.43 (≈ 0.57 µM) | 1.5 (≈ 1.99 µM) | 
8 | COc1cc2c(Oc3ccc(NC(=O)c4nn(-c5ccccc5OC(F)(F)F)c5ccccc5c4=O)cc3F)ccnc2cc1OCCCN1CCOCC1 [Example 37, N-(3-fluoro-4-((6-methoxy-7-(3-(morpholin-4-yl)propoxy)quinolin-4-yl)oxy)phenyl)-1-(2-(trifluoromethoxy)phenyl)-4-oxo-1,4-dihydrocinnoline-3-carboxamide] | 1.9 (≈ 2.5 µM) | 2.1 (≈ 2.76 µM) | 2.3 (≈ 3.03 µM) | 0.9 (≈ 1.18 µM) | 1.5 (≈ 1.97 µM) | 
9 | COc1cc2c(Oc3ccc(NC(=O)c4nn(-c5cccc(F)c5)c5ccccc5c4=O)cc3F)cnnc2cc1OCCCN1CCN(C)CC1 [Example 62, N-(3-fluoro-4-((6-methoxy-7-(3-(4-methylpiperazin-1-yl)propoxy)cinnolin-4-yl)oxy)phenyl)-1-(3-fluorophenyl)-4-oxo-1,4-dihydrocinnoline-3-carboxamide] |  |  |  |  |  | IC50 ([1]; NCI-H460, MTT, 72 hours, H460): 0.8 µg/mL (≈ 1.13 µM); IC50 ([2]; MTT, 72 hours, U87MG): 1.4 µg/mL (≈ 1.98 µM); IC50 ([3]; MTT, 72 hours, MKN-45): 3.6 µg/mL (≈ 5.09 µM); IC50 ([4]; MTT, 72 hours, HT-29): 2.1 µg/mL (≈ 2.97 µM); IC50 ([5]; MTT, 72 hours, SMMC-7721): 2.1 µg/mL (≈ 2.97 µM)
10 | COc1cc2c(Oc3ccc(NC(=O)c4nn(-c5c(Cl)cccc5Cl)c5ccccc5c4=O)cc3F)ccnc2cc1OCCCN1CCCC1 [Example 31, N-(3-fluoro-4-((6-methoxy-7-(3-(pyrrolidin-1-yl)propoxy)quinolin-4-yl)oxy)phenyl)-1-(2,6-dichlorophenyl)-4-oxo-1,4-dihydrocinnoline-3-carboxamide] | 0.77 (≈ 1.06 µM) | 0.26 (≈ 0.357 µM) | 0.18 (≈ 0.247 µM) | 0.27 (≈ 0.371 µM) | 0.33 (≈ 0.453 µM) | 
11 | N-(3-fluoro-4-((6-methoxy-7-(3-(4-methylpiperidin-1-yl)propoxy)quinolin-4-yl)oxy)phenyl)-1-(4-fluorophenyl)-4-oxo-1,4-dihydrocinnoline-3-carboxamide [Example 13] |  |  |  |  |  | H460 IC50 ([1]; MTT, 72 hours, H460): 0.081 µg/mL; U87MG IC50 ([2]; MTT, 72 hours, U87MG): 0.45 µg/mL; MKN-45 IC50 ([3]; MTT, 72 hours, MKN-45): 0.23 µg/mL; HT-29 IC50 ([4]; MTT, 72 hours, HT-29): 0.18 µg/mL; SMMC-7721 IC50 ([5]; MTT, 72 hours, SMMC-7721): 0.67 µg/mL
12 | COc1cc2c(Oc3ccc(NC(=O)c4nn(-c5cccc(F)c5)c5ccccc5c4=O)cc3F)ccnc2cc1OCCCN1CCCCC1 [Example 9, N-(3-fluoro-4-((6-methoxy-7-(3-(piperidin-1-yl)propoxy)quinolin-4-yl)oxy)phenyl)-1-(3-fluorophenyl)-4-oxo-1,4-dihydrocinnoline-3-carboxamide] | 0.007 (≈ 0.0101 µM) | 1.2 (≈ 1.73 µM) | 0.0075 (≈ 0.0108 µM) | 0.17 (≈ 0.246 µM) | 0.65 (≈ 0.94 µM) | 
13 | N-(3-fluoro-4-((6-methoxy-7-(3-(piperidin-1-yl)propoxy)quinolin-4-yl)oxy)phenyl)-1-(2-(tr ifluoromethyl)phenyl)-4-oxo-1,4-dihydrocinnoline-3-carboxamide dihydrochloride [Example 5] |  |  |  |  |  | H460 IC50 ([1]; MTT, 72 hours, H460): 0.77 µg/mL; U87MG IC50 ([2]; MTT, 72 hours, U87MG): 1.2 µg/mL; MKN-45 IC50 ([3]; MTT, 72 hours, MKN-45): 0.2 µg/mL; HT-29 IC50 ([4]; MTT, 72 hours, HT-29): 0.42 µg/mL; SMMC-7721 IC50 ([5]; MTT, 72 hours, SMMC-7721): 0.25 µg/mL
14 | COc1cc2c(Oc3ccc(NC(=O)c4nn(-c5ccc(F)cc5Br)c5ccccc5c4=O)cc3F)ccnc2cc1OCCCN1CCCC1 [Example 18, N-(3-fluoro-4-((6-methoxy-7-(3-(pyrrolidin-1-yl)propoxy)quinolin-4-yl)oxy)phenyl)-1-(2-bromo-4-fluorophenyl)-4-oxo-1,4-dihydrocinnoline-3-carboxamide] | 1.3 (≈ 1.72 µM) | 0.8 (≈ 1.06 µM) | 1.5 (≈ 1.98 µM) | 0.9 (≈ 1.19 µM) | 2.1 (≈ 2.78 µM) | 
15 | N-(3-fluoro-4-((6-methoxy-7-(3-(4-methylpiperidin-1-yl)propoxy)quinolin-4-yl)oxy)phenyl)-1-(2-fluorophenyl)-4-oxo-1,4-dihydrocinnoline-3-carboxamide [Example 14] |  |  |  |  |  | H460 IC50 ([1]; MTT, 72 hours, H460): 0.47 µg/mL; U87MG IC50 ([2]; MTT, 72 hours, U87MG): 0.15 µg/mL; MKN-45 IC50 ([3]; MTT, 72 hours, MKN-45): 0.45 µg/mL; HT-29 IC50 ([4]; MTT, 72 hours, HT-29): 0.31 µg/mL; SMMC-7721 IC50 ([5]; MTT, 72 hours, SMMC-7721): 1.1 µg/mL
16 | COc1cc2c(Oc3ccc(NC(=O)c4nn(-c5ccc(Br)cc5)c5ccccc5c4=O)cc3F)ccnc2cc1OCCCN1CCCCC1.Cl.Cl [Example 3, N-(3-fluoro-4-((6-methoxy-7-(3-(piperidin-1-yl)propoxy)quinolin-4-yl)oxy)phenyl)-1-(4-bromophenyl)-4-oxo-1,4-dihydrocinnoline-3-carboxamide dihydrochloride] | 0.3 | 1.2 | 0.34 | 0.86 | 0.63 | 
17 | COc1cc2c(Oc3ccc(NC(=O)c4nn(-c5ccccc5C(F)(F)F)c5ccccc5c4=O)cc3F)ccnc2cc1OCCCN1CCOCC1 [Example 4, N-(3-fluoro-4-((6-methoxy-7-(3-(morpholin-4-ylpropoxy)quinolin-4-yl)oxy)phenyl)-1-(2-(trifluoromethyl)phenyl)-4-oxo-1,4-dihydrocinnoline-3-carboxamidedihydrochloride] | 1 | 0.8 | 2 | 1.2 | 0.9 | 
18 | COc1cc2c(Oc3ccc(NC(=O)c4nn(-c5cccc(F)c5)c5ccccc5c4=O)cc3F)cnnc2cc1OCCCN1CCCCC1 [Example 64, N-(3-fluoro-4-((6-methoxy-7-(3-(piperidin-1-yl)propoxy)cinnolin-4-yl)oxy)phenyl)-1-(3-fluorophenyl)-4-oxo-1,4-dihydrocinnoline-3-carboxamide] |  |  |  |  |  | IC50 ([1]; NCI-H460, MTT, 72 hours, H460): 1.8 µg/mL (≈ 2.6 µM); IC50 ([2]; MTT, 72 hours, U87MG): 2.7 µg/mL (≈ 3.9 µM); IC50 ([3]; MTT, 72 hours, MKN-45): 3.3 µg/mL (≈ 4.76 µM); IC50 ([4]; MTT, 72 hours, HT-29): 3.2 µg/mL (≈ 4.62 µM); IC50 ([5]; MTT, 72 hours, SMMC-7721): 1.9 µg/mL (≈ 2.74 µM)
19 | COc1cc2c(Oc3ccc(NC(=O)c4nn(-c5ccccc5Cl)c5ccccc5c4=O)cc3F)ccnc2cc1OCCCN1CCOCC1 [Example 33, N-(3-fluoro-4-((6-methoxy-7-(3-(morpholin-4-yl)propoxy)quinolin-4-yl)oxy)phenyl)-1-(2-chlorophenyl)-4-oxo-1,4-dihydrocinnoline-3-carboxamide] | 2.2 (≈ 3.1 µM) | 1.4 (≈ 1.97 µM) |  | 0.9 (≈ 1.27 µM) | 1.6 (≈ 2.25 µM) | 
